Data taken from patent US9120749B2, “Quinoline derivatives and MELK inhibitors containing the same” (ONCOTHERAPY SCIENCE, INC., priority 2010, dated 2015).
Counter-ions that a name gives are not always drawn. Like-named read-outs stand apart in the source and are kept apart here.

Columns and labels:
MELK = MELK (Homo sapiens, UniProt Q14680); experiment: Kinase assay: MELK activity, phosphorylation of FITC-labeled histone H3 peptide measured by IMAP fluorescence polarization; assay type: biochemical; details: read-out: IC50 (μM) (kinase assay)
Summary of the method: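 Substrate is FITC-labeled histone H3 peptide. Compounds come from a 12.5 mM DMSO stock, diluted so assay DMSO is 1%. The stop step adds threefold-volume progressive binding solution, followed by 0.5 h at room temperature and an FP read.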

T47D cells = experiment: Cell-based assay: anti-proliferative activity, Cell Counting Kit-8, 72 hours (T47D)
Summary of the method: (§1)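 IC50 values come from CCK-8 growth measurements taken 72 hours post-treatment of plated cells with test compounds. Expression of MELK across the panel was assessed through immunoblot of unfractionated lysates.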

A549 cells = experiment: Cell-based assay: anti-proliferative activity, Cell Counting Kit-8, 72 hours (A549); details: 72 hours
Summary of the method: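 A549 cells seeded in 96-well plates and exposed to candidate inhibitors for 72 hours. Growth measured with Cell Counting Kit-8; IC50 values calculated from the dose response.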

HT-1197 cells = experiment: Cell-based assay: anti-proliferative activity, Cell Counting Kit-8, 72 hours (HT-1197, negative control without MELK expression); details: HT1197 cells (negative control), 72 hours
Summary of the method: as §1

DU4475 cells = experiment: Cell-based assay: anti-proliferative activity, Cell Counting Kit-8, 72 hours (DU4475)

Sequence of MELK (Q14680 whole entry, looked up): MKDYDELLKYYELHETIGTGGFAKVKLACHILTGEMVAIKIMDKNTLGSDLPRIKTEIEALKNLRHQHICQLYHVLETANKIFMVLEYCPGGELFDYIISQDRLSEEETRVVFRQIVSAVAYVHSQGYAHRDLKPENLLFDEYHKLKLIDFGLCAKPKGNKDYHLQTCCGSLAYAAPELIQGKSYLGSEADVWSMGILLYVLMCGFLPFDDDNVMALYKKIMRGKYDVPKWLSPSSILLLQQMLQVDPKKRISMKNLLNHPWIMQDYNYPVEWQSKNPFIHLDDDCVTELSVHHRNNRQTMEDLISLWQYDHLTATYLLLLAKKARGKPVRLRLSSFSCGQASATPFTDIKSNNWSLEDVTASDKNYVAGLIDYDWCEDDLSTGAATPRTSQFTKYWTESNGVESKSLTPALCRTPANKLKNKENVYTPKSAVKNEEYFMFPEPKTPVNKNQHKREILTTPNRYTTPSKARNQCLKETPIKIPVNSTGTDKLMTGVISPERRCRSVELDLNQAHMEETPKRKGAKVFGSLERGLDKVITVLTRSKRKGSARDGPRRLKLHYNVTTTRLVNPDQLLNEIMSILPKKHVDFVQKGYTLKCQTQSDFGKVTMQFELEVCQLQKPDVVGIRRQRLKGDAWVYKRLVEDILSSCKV

Nc1ccc(Nc2c(C(=O)C3CC3)cnc3ccc(-c4cc(F)c(O)c(Cl)c4)cc23)cn1 [Example 591, (4-(6-aminopyridin-3-ylamino)-6-(3-chloro-5-fluoro-4-hydroxyphenyl)quinolin-3-yl)(cyclopropyl)methanone]
IC50 (MELK): 0.032 µM | IC50 (T47D cells; Homo sapiens, T47D, 72 h): 0.26 µM | IC50 (A549 cells; Homo sapiens, A549, 72 h): 0.36 µM | IC50 (HT-1197 cells; Homo sapiens, HT1197, 72 h): 1.4 µM | IC50 (DU4475 cells; Homo sapiens, DU-4475, 72 h): 0.12 µM

CN(C)CCc1ccc(Nc2c(C(=O)C3CC3)cnc3ccc(-c4cc(Cl)c(O)c(Cl)c4)cc23)cc1 [Example 613, Cyclopropyl(6-(3,5-dichloro-4-hydroxyphenyl)-4-(4-(2-(dimethylamino)ethyl)phenylamino)quinolin-3-yl)methanone]
IC50 (MELK): 0.0022 µM | IC50 (T47D cells; Homo sapiens, T47D, 72 h): 0.13 µM | IC50 (A549 cells; Homo sapiens, A549, 72 h): 0.075 µM | IC50 (HT-1197 cells; Homo sapiens, HT1197, 72 h): 1 µM | IC50 (DU4475 cells; Homo sapiens, DU-4475, 72 h): 0.028 µM

COc1cc(-c2ccc3ncc(C(=O)C4CC4)c(N[C@H]4CC[C@@H](CN(C)C)CC4)c3c2)cc(Cl)c1O [Example 513]
IC50 (MELK): 0.002 µM | IC50 (T47D cells; Homo sapiens, T47D, 72 h): 0.19 µM | IC50 (A549 cells; Homo sapiens, A549, 72 h): 0.099 µM | IC50 (HT-1197 cells; Homo sapiens, HT1197, 72 h): 3.8 µM | IC50 (DU4475 cells; Homo sapiens, DU-4475, 72 h): 0.086 µM

CN[C@H]1CC[C@H](Nc2c(C(=O)C3CC3)cnc3ccc(-c4cc(F)c(O)c(Cl)c4)cc23)CC1 [Example 523, {6-(3-Chloro-5-fluoro-4-hydroxyphenyl)-4-[trans-4-(methylamino)cyclohexylamino]quinolin-3-yl}(cyclopropyl)methanone]
IC50 (MELK): 0.0024 µM | IC50 (T47D cells; Homo sapiens, T47D, 72 h): 0.033 µM | IC50 (A549 cells; Homo sapiens, A549, 72 h): 0.19 µM | IC50 (HT-1197 cells; Homo sapiens, HT1197, 72 h): 1.3 µM | IC50 (DU4475 cells; Homo sapiens, DU-4475, 72 h): 0.024 µM

COc1cc(-c2ccc3ncc(C(=O)C4CC4)c(Nc4ccc(N5CCCC(N)C5)nc4)c3c2)cc(Cl)c1O (stereo not shown) [Example 554, (4-(6-(3-aminopiperidin-1-yl)pyridin-3-ylamino)-6-(3-chloro-4-hydroxy-5-methoxyphenyl)quinolin-3-yl)(cyclopropyl)methanone]
IC50 (MELK): 0.0031 µM | IC50 (T47D cells; Homo sapiens, T47D, 72 h): 0.068 µM | IC50 (A549 cells; Homo sapiens, A549, 72 h): 0.08 µM | IC50 (HT-1197 cells; Homo sapiens, HT1197, 72 h): 1.9 µM | IC50 (DU4475 cells; Homo sapiens, DU-4475, 72 h): 0.025 µM

COc1cc(-c2ccc3ncc(C(=O)C4CC4)c(Nc4ccc(N5CCC(N)C5)nc4)c3c2)cc(Cl)c1O (stereo not shown) [Example 568, (4-(6-(3-aminopyrrolidin-1-yl)pyridin-3-ylamino)-6-(3-chloro-4-hydroxy-5-methoxyphenyl)quinolin-3-yl)(cyclopropyl)methanone]
IC50 (MELK): 0.0027 µM | IC50 (T47D cells; Homo sapiens, T47D, 72 h): 0.057 µM | IC50 (A549 cells; Homo sapiens, A549, 72 h): 0.082 µM | IC50 (HT-1197 cells; Homo sapiens, HT1197, 72 h): 0.62 µM | IC50 (DU4475 cells; Homo sapiens, DU-4475, 72 h): 0.045 µM

NC1CCCN(c2ccc(Nc3c(C(=O)C4CC4)cnc4ccc(-c5cc(Cl)c(O)c(Cl)c5)cc34)cn2)C1 (stereo not shown) [Example 556, (4-(6-(3-aminopiperidin-1-yl)pyridin-3-ylamino)-6-(3,5-dichloro-4-hydroxyphenyl)quinolin-3-yl)(cyclopropyl)methanone]
IC50 (MELK): 0.0044 µM | IC50 (T47D cells; Homo sapiens, T47D, 72 h): 0.03 µM | IC50 (A549 cells; Homo sapiens, A549, 72 h): 0.023 µM | IC50 (HT-1197 cells; Homo sapiens, HT1197, 72 h): 0.96 µM | IC50 (DU4475 cells; Homo sapiens, DU-4475, 72 h): 0.016 µM

NC1CCN(c2ccc(Nc3c(C(=O)C4CC4)cnc4ccc(-c5cc(F)c(O)c(Cl)c5)cc34)cn2)C1 (stereo not shown) [Example 577, (4-(6-(3-aminopyrrolidin-1-yl)pyridin-3-ylamino)-6-(3-chloro-5-fluoro-4-hydroxyphenyl)quinolin-3-yl)(cyclopropyl)methanone hydrochloride]
IC50 (MELK; hydrochloride): 0.0037 µM | IC50 (T47D cells; 72 hours, hydrochloride): 0.0065 µM | IC50 (A549 cells; hydrochloride): 0.029 µM | IC50 (HT-1197 cells; hydrochloride): 0.52 µM | IC50 (DU4475 cells; hydrochloride): 0.014 µM

COc1cc(-c2ccc3ncc(C(=O)C4CC4)c(N[C@H]4CC[C@H](CN5CC[C@@H](F)C5)CC4)c3c2)cc(Cl)c1O [Example 569]
IC50 (MELK): 0.011 µM | IC50 (T47D cells; Homo sapiens, T47D, 72 h): 0.62 µM | IC50 (A549 cells; Homo sapiens, A549, 72 h): 0.4 µM | IC50 (HT-1197 cells; Homo sapiens, HT1197, 72 h): 1.8 µM | IC50 (DU4475 cells; Homo sapiens, DU-4475, 72 h): 0.41 µM

COc1cc(-c2ccc3ncc(C(=O)C4CC4)c(Nc4ccc(C(N)=O)cc4)c3c2)cc(Cl)c1O [Example 546, 4-(6-(3-chloro-4-hydroxy-5-methoxyphenyl)-3-(cyclopropanecarbonyl)quinolin-4-ylamino)benzamide]
IC50 (MELK): 0.04 µM | IC50 (T47D cells; Homo sapiens, T47D, 72 h): 1.1 µM | IC50 (A549 cells; Homo sapiens, A549, 72 h): 1 µM | IC50 (HT-1197 cells; Homo sapiens, HT1197, 72 h): 12 µM | IC50 (DU4475 cells; Homo sapiens, DU-4475, 72 h): 1 µM

COc1cc(-c2ccc3ncc(C(=O)C4CC4)c(Nc4cccc(CN(C)C)c4)c3c2)cc(Cl)c1O [Example 622, (6-(3-chloro-4-hydroxy-5-methoxyphenyl)-4-(3-((dimethylamino)methyl)phenylamino)quinolin-3-yl)(cyclopropyl)methanone]
IC50 (MELK): 0.0037 µM | IC50 (T47D cells; Homo sapiens, T47D, 72 h): 1.1 µM | IC50 (A549 cells; Homo sapiens, A549, 72 h): 0.43 µM | IC50 (HT-1197 cells; Homo sapiens, HT1197, 72 h): 5.5 µM | IC50 (DU4475 cells; Homo sapiens, DU-4475, 72 h): 0.32 µM
